The target in assay [1] is T1, MAGL (Mus musculus, UniProt O35678).
T1 construct: Proteomes (mouse brain membrane fraction or cell lysates); from tissue; host or cells: mouse brain membrane fraction (or cell lysates)
T1 sequence (O35678 1-303): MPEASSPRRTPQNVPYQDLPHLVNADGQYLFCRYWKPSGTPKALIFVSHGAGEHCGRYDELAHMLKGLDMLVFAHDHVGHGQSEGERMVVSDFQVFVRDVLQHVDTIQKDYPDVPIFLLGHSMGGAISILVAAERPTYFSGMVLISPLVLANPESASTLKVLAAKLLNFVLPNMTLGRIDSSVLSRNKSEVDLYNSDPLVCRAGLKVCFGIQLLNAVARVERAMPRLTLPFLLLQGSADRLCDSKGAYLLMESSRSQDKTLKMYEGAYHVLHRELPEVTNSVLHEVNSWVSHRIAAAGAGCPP
The experiment in a line: In vitro competitive activity-based protein profiling (mouse), MAGL gel band. The format is biochemical. The note with it: for IC50: mouse; for inhibition at 1 µM: read-out: MAGL % inh. 1 μM. The method in brief: (§1)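 Mouse brain membrane proteome or cell lysate (1.0 mg/mL protein) preincubated 30 min at 37 °C with varying inhibitor concentrations, then labelled 30 min at 37 °C with FP-Rh or HT-01 probe (50 μM stock). After SDS-PAGE, activity taken from fluorescent intensity of the MAGL and FAAH gel bands.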

For another assay, the target named is T2, FAAH (Mus musculus, UniProt O08914).
T2 construct: Proteomes (mouse brain membrane fraction or cell lysates); from tissue; host or cells: mouse brain membrane fraction (or cell lysates)
T2 sequence (O08914 1-579): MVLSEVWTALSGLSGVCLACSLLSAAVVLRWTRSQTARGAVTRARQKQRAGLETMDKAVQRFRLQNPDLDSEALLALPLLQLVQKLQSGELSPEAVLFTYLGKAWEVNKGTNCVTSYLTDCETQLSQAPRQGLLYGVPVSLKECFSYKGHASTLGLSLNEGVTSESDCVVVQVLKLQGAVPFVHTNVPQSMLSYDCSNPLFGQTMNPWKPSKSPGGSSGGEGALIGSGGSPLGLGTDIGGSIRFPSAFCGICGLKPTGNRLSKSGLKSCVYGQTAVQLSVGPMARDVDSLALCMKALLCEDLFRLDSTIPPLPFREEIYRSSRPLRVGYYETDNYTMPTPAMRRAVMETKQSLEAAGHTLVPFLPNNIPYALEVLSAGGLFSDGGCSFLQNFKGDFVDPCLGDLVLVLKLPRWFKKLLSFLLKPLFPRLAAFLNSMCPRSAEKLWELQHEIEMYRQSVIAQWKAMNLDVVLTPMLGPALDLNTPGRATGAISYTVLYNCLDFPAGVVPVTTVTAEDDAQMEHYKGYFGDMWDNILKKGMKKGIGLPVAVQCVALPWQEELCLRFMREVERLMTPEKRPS
The assay can be described thus: In vitro competitive activity-based protein profiling (mouse), FAAH gel band. The class given is biochemical. The note with it: for IC50: mouse; for inhibition at 1 µM: read-out: FAAH % inh. 1 μM. Summed up:
as §1

In assay [2] the target is T3, MAGL (Homo sapiens, UniProt Q99685).
T3 construct: Proteomes (human prefrontal cortex or cell membrane fractions); from tissue; host or cells: human prefrontal cortex (or cell membrane fractions)
T3 sequence (Q99685 1-303): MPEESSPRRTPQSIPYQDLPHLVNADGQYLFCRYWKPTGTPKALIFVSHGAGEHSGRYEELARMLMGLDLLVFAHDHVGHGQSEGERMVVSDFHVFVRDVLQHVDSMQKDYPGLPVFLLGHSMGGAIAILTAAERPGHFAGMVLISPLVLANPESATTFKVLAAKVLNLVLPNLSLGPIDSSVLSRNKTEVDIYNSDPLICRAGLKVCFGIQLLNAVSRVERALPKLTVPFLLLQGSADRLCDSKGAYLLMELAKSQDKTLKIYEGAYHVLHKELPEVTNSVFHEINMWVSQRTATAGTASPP
The assay can be described thus: In vitro competitive activity-based protein profiling (human), MAGL gel band. The class given is biochemical. Summed up:
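Human prefrontal cortex or cell membrane proteomes (1.0-2.0 mg/mL protein) preincubated with inhibitors 30 min at 37° C, then labelled with FP-Rh or JW912 probe 30 min at room temperature. Residual MAGL activity read as fluorescent gel-band intensity after SDS-PAGE.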

Assay [3] addresses T1, MAGL. The experiment in a line: Mouse brain proteomes from inhibitor treated mice (oral gavage, sacrificed 4 h after administration). The class given is in vivo. To be noted: read-out: MAGL % inh. 5 mg/kg. Summed up:
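Brains were collected 4 h after oral gavage dosing of wild-type C57Bl/6J mice, vehicle polyethylene glycol. Proteomes from these brains were then analyzed for MAGL and other serine hydrolase activity.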

Each structure is given as a SMILES string.

As for `CC(=O)Nc1ccn(C(=O)N2CCN(Cc3ccc(C(F)(F)F)cc3N3CCC4(CCOCC4)C3)CC2)n1` [Example 45, N-(1-(4-(2-(8-oxa-2-azaspiro[4.5]decan-2-yl)-4-(trifluoromethyl)benzyl)piperazine-1-carbonyl)-1H-pyrazol-3-yl)acetamide], the IC50 (in general, the midpoint of a concentration-inhibition curve) at MAGL [1] is ≤ 100 nM; on FAAH, 1000 to 10000 nM; at MAGL [2], 100 to 1000 nM. For the same compound, the inhibition at 1 µM on MAGL [1] is ≥ 75%; on FAAH, 0 to 25%. The inhibition at 5 mg/kg at MAGL [3] lay in the range of 0 to 25%.
For the compound `CC(=O)Nc1ccn(C(=O)N2CCN(Cc3ccc(Cl)cc3N3CCN(S(C)(=O)=O)CC3)CC2)n1` [Example 52, N-(1-(4-(4-chloro-2-(4-(methylsulfonyl)piperazin-1-yl)benzyl)piperazine-1-carbonyl)-1H-pyrazol-3-yl)acetamide], the IC50 on MAGL [1] is ≤ 100 nM; on FAAH it was 1000 to 10000 nM; at MAGL [2] it was ≤ 100 nM. In addition, the inhibition at 1 µM is ≥ 75% at MAGL [1] and 0 to 25% at FAAH. Further, the inhibition at 5 mg/kg at MAGL [3] was in the range of 0 to 25%.
`CC(=O)Nc1ccn(C(=O)N2CCC3(CCCN3Cc3ccc(Cl)c(C)c3)CC2)n1` [Example 94, N-(1-(1-(4-chloro-3-methylbenzyl)-1,8-diazaspiro[4.5]decane-8-carbonyl)-1H-pyrazol-3-yl)acetamide]: the IC50 at MAGL [1] is ≤ 100 nM; on FAAH, 1000 to 10000 nM; at MAGL [2] it was ≤ 100 nM. Further, the values for the inhibition at 1 µM on MAGL [1] and at FAAH were ≥ 75% and 0 to 25%, respectively. At MAGL [3], the inhibition at 5 mg/kg is ≥ 75%.
Consider `CC(=O)Nc1ccn(C(=O)N2CCC3(CCCN3Cc3ccc(C)c(Cl)c3)CC2)n1` [Example 96, N-(1-(1-(3-chloro-4-methylbenzyl)-1,8-diazaspiro[4.5]decane-8-carbonyl)-1H-pyrazol-3-yl)acetamide], for which the IC50 at MAGL [1] is ≤ 100 nM; at FAAH, 1000 to 10000 nM; on MAGL [2] it was ≤ 100 nM. In addition, the inhibition at 1 µM is ≥ 75% on MAGL [1] and 0 to 25% on FAAH. On MAGL [3], the inhibition at 5 mg/kg was ≥ 75%.
For `CC(=O)Nc1ccn(C(=O)N2CCC3(CCCN3Cc3ccc(Cl)c(C4CC4)c3)CC2)n1` [Example 111, N-(1-(1-(4-chloro-3-cyclopropylbenzyl)-1,8-diazaspiro[4.5]decane-8-carbonyl)-1H-pyrazol-3-yl)acetamide], the values for the inhibition at 1 µM on MAGL [1] and at FAAH were ≥ 75% and 0 to 25%, respectively. Also, the IC50 on MAGL [2] is ≤ 100 nM. Further, the inhibition at 5 mg/kg on MAGL [3] fell in the range of 0 to 25%.
As for `CS(=O)(=O)Nc1ccn(C(=O)N2CCN(Cc3ccc(C(F)(F)F)cc3-c3nncs3)CC2)n1` [Example 114, N-(1-(4-(2-(1,3,4-thiadiazol-2-yl)-4-(trifluoromethyl)benzyl)piperazine-1-carbonyl)-1H-pyrazol-3-yl)methanesulfonamide], the inhibition at 1 µM is ≥ 75% at MAGL [1] and 0 to 25% at FAAH. Also, the IC50 on MAGL [2] is ≤ 100 nM. Moreover, the inhibition at 5 mg/kg on MAGL [3] is 0 to 25%.
Take `CS(=O)(=O)Nc1ccn(C(=O)N2CCN(Cc3cc(Cl)ccc3N3CCOCC3)CC2)n1` [Example 123, N-(1-(4-(5-chloro-2-morpholinobenzyl)piperazine-1-carbonyl)-1H-pyrazol-3-yl) methanesulfonamide]: the IC50 on MAGL [1] is 100 to 1000 nM; at FAAH, 1000 to 10000 nM; at MAGL [2], ≤ 100 nM. Besides, the inhibition at 1 µM at MAGL [1] was ≥ 75%; at FAAH it was 0 to 25%. Moreover, the inhibition at 5 mg/kg on MAGL [3] is 25 to 50%.
With `CS(=O)(=O)Nc1ccn(C(=O)N2CCC3(CCCN3Cc3ccc(C(F)(F)F)cc3N3CCCC3)CC2)n1` [Example 125, N-(1-(1-(2-(pyrrolidin-1-yl)-4-(trifluoromethyl)benzyl)-1,8-diazaspiro[4.5]decane-8-carbonyl)-1H-pyrazol-3-yl) methanesulfonamide], the IC50 is ≤ 100 nM at MAGL [1], 1000 to 10000 nM at FAAH and ≤ 100 nM on MAGL [2]. Besides, the inhibition at 1 µM on MAGL [1] was ≥ 75%; on FAAH, 0 to 25%. For the same compound, the inhibition at 5 mg/kg on MAGL [3] is 0 to 25%.
Take `CS(=O)(=O)Nc1ccn(C(=O)N2CCC3(CCCN3Cc3ccc(C(F)(F)F)cc3N3C[C@H]4CC[C@@H](C3)O4)CC2)n1` [Example 136, N-(1-(1-(2-((1R,5S)-8-oxa-3-azabicyclo[3.2.1]octan-3-yl)-4-(trifluoromethyl)benzyl)-1,8-diazaspiro[4.5]decane-8-carbonyl)-1H-pyrazol-3-yl) methanesulfonamide]: the half-maximal inhibitory concentration (IC50) on MAGL [1] is 100 to 1000 nM; at FAAH, 1000 to 10000 nM; on MAGL [2], ≤ 100 nM. The results for the inhibition at 1 µM at MAGL [1] and at FAAH were ≥ 75% and 0 to 25%, respectively. Also, the inhibition at 5 mg/kg on MAGL [3] was 0 to 25%.
Take `CS(=O)(=O)Nc1ccn(C(=O)N2CCN(Cc3ccc(N4CCCC4)c(C(F)(F)F)c3)CC2)n1` [Example 152, N-(1-(4-(4-(pyrrolidin-1-yl)-3-(trifluoromethyl)benzyl)piperazine-1-carbonyl)-1H-pyrazol-3-yl) methanesulfonamide]: the half-maximal inhibitory concentration (IC50) on MAGL [1] is ≤ 100 nM; on FAAH, 1000 to 10000 nM; at MAGL [2], ≤ 100 nM. For the same compound, the inhibition at 1 µM is ≥ 75% at MAGL [1] and 0 to 25% on FAAH. Moreover, the inhibition at 5 mg/kg on MAGL [3] was ≥ 75%.
As to `CS(=O)(=O)Nc1ccn(C(=O)N2CCN(Cc3ccc(C(F)(F)F)c(N4CCN5CCC[C@H]5C4)c3)CC2)n1` [Example 287, (S)-N-(1-(4-(3-(hexahydropyrrolo[1,2-a]pyrazin-2(1H)-yl)-4-(trifluoromethyl)benzyl)piperazine-1-carbonyl)-1H-pyrazol-3-yl) methanesulfonamide], the inhibition at 1 µM at MAGL [1] was ≥ 75%; at FAAH, 0 to 25%. Moreover, the IC50 on MAGL [2] is ≤ 100 nM.
Taken in the same sequence, the figures for `CS(=O)(=O)Nc1ccn(C(=O)N2CCN(Cc3ccc(C(F)(F)F)c(N4CCC(O)CC4)c3)CC2)n1` [Example 289, N-(1-(4-(3-(4-hydroxypiperidin-1-yl)-4-(trifluoromethyl)benzyl)piperazine-1-carbonyl)-1H-pyrazol-3-yl) methanesulfonamide] were ≥ 75%, 0 to 25% and ≤ 100 nM.
With `CS(=O)(=O)Nc1ccn(C(=O)N2CCN(Cc3ccc(C(F)(F)F)c(N4CCC(C(N)=O)CC4)c3)CC2)n1` [Example 291, 1-(5-((4-(3-(methylsulfonamido)-1H-pyrazole-1-carbonyl)piperazin-1-yl)methyl)-2-(trifluoromethyl)phenyl)piperidine-4-carboxamide], the inhibition at 1 µM at MAGL [1] was 0 to 25%; at FAAH it was 0 to 25%; at MAGL [2] (at 1 μM, read-out: MAGL human % inh at 1 μM), 25%.
Turning to `CS(=O)(=O)Nc1ccn(C(=O)N2CCN(Cc3ccc(Cl)c(N4CC[C@H](O)C4)c3)CC2)n1` [Example 292, (S)-N-(1-(4-(4-chloro-3-(3-hydroxypyrrolidin-1-yl)benzyl)piperazine-1-carbonyl)-1H-pyrazol-3-yl) methanesulfonamide], the inhibition at 1 µM at MAGL [1] is ≥ 75%; at FAAH, 0 to 25%. Moreover, on MAGL [2], the IC50 was ≤ 100 nM.
Turning to `CS(=O)(=O)Nc1ccn(C(=O)N2CCN(Cc3ccc(Cl)c(N4CC[C@@H](O)C4)c3)CC2)n1` [Example 293, (R)-N-(1-(4-(4-chloro-3-(3-hydroxypyrrolidin-1-yl)benzyl)piperazine-1-carbonyl)-1H-pyrazol-3-yl) methanesulfonamide], the values for the inhibition at 1 µM on MAGL [1] and at FAAH were ≥ 75% and 0 to 25%, respectively. Moreover, on MAGL [2], the IC50 was ≤ 100 nM.

The values above are taken from US10519134B2, “Pyrazole compounds and methods of making and using same” (Lundbeck La Jolla Research Center, Inc., priority 2015, dated 2019).
